Experimental data from patent US20230263786A1, “MODULATION OF DRUG-DRUG INTERACTIONS OF VADADUSTAT” (Akebia Therapeutics, Inc., priority 2020, published 2023).
Where two headings read alike, the source gives them in different places.

Assays:
[1] = Phase I furosemide interaction study; format: in vivo, human; settings: furosemide 40 mg and vadadustat 600 mg once daily
Description: The study included 3 periods as follow: a 28-day screening period, 7-21 day in clinic period, and a 30-day follow up period post last dose.
On Days 3 to 6, subjects received vadadustat 600 mg (once daily).

[2] = clinical; settings: male, human, plasma, oral, 450 mg
Description: Pharmacokinetics. […] The ratio of metabolite to parent was calculated for each glucuronide metabolite for AUC(0-t); and AUC(0-inf) and Cmax.
Comparative Bioavailability. […] Factors incorporated in the model included: Sequence, Subject (Sequence), Period, and Treatment.
Treatment of Subjects. […] All subjects are dosed on the same day for Day 1 of Confinement Period 1, and are crossed over to the alternate treatment and are dosed on the same day for Day 1 of Confinement Period 2. Both treatments are administered in a fasted state, and a four-day Washout Period separates each Confinement Period.

[3] = biological target: CYP2C9 (Homo sapiens, UniProt P11712); assay: CYP2C9 inhibition in vitro; format: in vitro ADME
CYP2C9, sequence (P11712 whole entry): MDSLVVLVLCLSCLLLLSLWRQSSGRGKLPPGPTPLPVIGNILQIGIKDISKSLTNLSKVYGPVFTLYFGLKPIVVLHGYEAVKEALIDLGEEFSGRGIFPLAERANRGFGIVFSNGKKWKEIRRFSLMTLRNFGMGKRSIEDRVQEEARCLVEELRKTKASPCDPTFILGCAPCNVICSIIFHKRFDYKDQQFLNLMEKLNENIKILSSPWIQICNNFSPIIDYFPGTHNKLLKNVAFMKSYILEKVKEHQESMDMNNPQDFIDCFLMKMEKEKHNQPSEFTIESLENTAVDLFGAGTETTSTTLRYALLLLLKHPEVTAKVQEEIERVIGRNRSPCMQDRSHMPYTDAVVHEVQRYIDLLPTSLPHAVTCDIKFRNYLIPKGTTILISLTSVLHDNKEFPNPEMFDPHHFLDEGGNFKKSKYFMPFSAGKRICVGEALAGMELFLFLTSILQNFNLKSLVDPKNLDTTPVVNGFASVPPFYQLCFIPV

[4] = Phase I calcium acetate interaction study; format: in vivo, human; settings: for AUC(0-t) / Cmax / Tmax / AUC(0-inf) / clearance / half-life / Vd: human, plasma, oral; for Tmax: median; for clearance: read-out: Clearance (ClB) (converted); for half-life: read-out: Elimination half-life (t1/2) (converted); for Vd: read-out: Volume of distribution (Vc)
Description: A phase I, open-label, fixed-sequence study was conducted in healthy adult subjects to assess the effect of 1) a single oral dose of calcium acetate on the pharmacokinetics of a single oral dose of vadadustat.
The study included screening (28 days maximum), 9-day treatment period, and a 14-day follow-up period post last dose.
Pharmacokinetics. A predose PK blood sample was collected on Day 1. After each dose of vadadustat administered (Days 1, 3, 5, and 7), blood samples for PK analysis were collected at the following time points: predose and 0.5, 1, 1.5, 2, 3, 4, 6, 9, 12, 16, 24, and 48 hours after each dose of vadadustat. The 48-hour postdose sample was collected before vadadustat administration on Days 3, 5, and 7. The following parameters were calculated and analyzed: AUC0-∞, AUC0-last, Cmax, Tmax, Kel, CIB, Vc/F, and t1/2.
Subjects were dosed approximately at the same designated time on each dosing day, where applicable. Study drugs were administered with approximately 8 ounces (240 mL) of water at room temperature in a seated position. Subjects were instructed to drink the full 8 ounces of water, and not to chew or break the tablets/gelcaps.
The 9-day treatment period was conducted as follows: • Day 1: vadadustat administered immediately after consuming breakfast. • Day 2: wash-out (no investigational product administration). • Day 3: vadadustat administered concomitantly with the requisite phosphate binder immediately after consuming breakfast. • Day 4: wash-out (no investigational product administration). • Day 5: vadadustat administered in fasted condition and the phosphate binder administered 1 hour later (breakfast must be served within 2 minutes after phosphate binder administration and consumed immediately after it is served). • Day 6: wash-out (no investigational product administration). • Day 7: phosphate binder administered immediately after consuming breakfast; vadadustat administered 2 hours after the phosphate binder was administered. • Day 8: wash-out (no investigational product administration). • Day 9: subjects discharged from the Clinical Research Unit (CRU) after the 48-hour postdose PK blood sample has been collected.
A single oral dose of vadadustat 300 mg (2×150 mg tablets) was administered on Days 1, 3, 5, and 7. Phosphate binder that is calcium acetate (1334 mg, 2×667 mg gelcaps) was administered on Days 3, 5, and 7.

[5] = Plasma pharmacokinetics, 150/300/600 mg once daily, first day; format: in vivo; settings: male, human, healthy adult men
[6] = concomitant administration of phosphate binder, ANOVA
[7] = 300 mg, Concomitant administration with calcium acetate 1334 mg after breakfast
[8] = 300 mg, Vadadustat 300 mg alone, immediately after breakfast
[9] = 300 mg, Vadadustat administered 1 hour prior to calcium acetate, fasting
[10] = 300 mg, Vadadustat administered 2 hours after calcium acetate

In the case of `O=C(O)CNC(=O)c1ncc(-c2cccc(Cl)c2)cc1O` [Compound 1, {[5-(3-chlorophenyl)-3-hydroxypyridine-2-carbonyl]amino}acetic acid], the “serious TEAEs” value [1] is reported as “No serious TEAEs”, the AUC(0-inf) [2] is reported as 263 µg·h/mL and the AUC(0-t) [2] is reported as 253 µg·h/mL. The Cmax [2] was 45300 ng/mL, the Tmax [2] was 3 h and the “inhibitory effect on CYP2C9” value [3] was “inhibitory effect”. For the same compound, the “reduction of AUC0-last and AUC0-∞” value [4, 6] was “about 55%”, the “reduction of Cmax” value [4, 6] was “about 51%” and the AUC(0-t) [4, 7] was 77.4 ± 31.7 µg·h/mL. The Cmax [4, 7] was 11300 ± 4390 ng/mL, the Tmax [4, 7] was 4 h and the AUC(0-inf) ([4]; 300 mg, Concomitant administration with calcium acetate 1334 mg after breakfast, read-out: AUC0-∞) was 79.6 ± 32.7 µg·h/mL. The clearance [4, 7] was 77.3 mL/min, the half-life [4, 7] was 4.58 ± 0.9 h and the Vd [4, 7] was 29.8 ± 14.6 L. It also gave an AUC(0-t) [4, 8] of 163 ± 45.7 µg·h/mL, a Cmax [4, 8] of 21900 ± 5610 ng/mL and a Tmax [4, 8] of 3.93 h. For the same compound, the AUC(0-inf) ([4]; 300 mg, Vadadustat 300 mg alone, immediately after breakfast, read-out: AUC0-∞) was 166 ± 45.4 µg·h/mL, the clearance [4, 8] was 31.8 mL/min and the half-life [4, 8] was 4.75 ± 1.2 h. The Vd [4, 8] was 12.6 ± 2.41 L, the AUC(0-t) [4, 9] was 130 ± 36.2 µg·h/mL and the Cmax [4, 9] was 25000 ± 9560 ng/mL. For the same compound, the Tmax [4, 9] was 1.44 h, the AUC(0-inf) ([4]; 300 mg, Vadadustat administered 1 hour prior to calcium acetate, fasting, read-out: AUC0-∞) was 133 ± 36.8 µg·h/mL and the clearance [4, 9] was 40.3 mL/min. The half-life [4, 9] was 4.47 ± 0.75 h, the Vd [4, 9] was 15.3 ± 3.25 L and the AUC(0-t) [4, 10] was 132 ± 44.3 µg·h/mL. The Cmax [4, 10] was 24600 ± 7130 ng/mL, the Tmax [4, 10] was 2.97 h and the AUC(0-inf) ([4]; 300 mg, Vadadustat administered 2 hours after calcium acetate, read-out: AUC0-∞) was 135 ± 44.3 µg·h/mL. For the same compound, the clearance [4, 10] was 42.2 mL/min, the half-life [4, 10] was 4.84 ± 1.03 h and the Vd [4, 10] was 17.8 ± 9.99 L. For the same compound, the AUC(0-inf) ([4]; vadadustat administered concurrently with calcium acetate, read-out: geometric LS mean AUC0-∞) was 72.4 µg·h/mL, the “changes in vadadustat exposure” value ([4]; vadadustat administered 1 hour prior to calcium acetate) was “within the prespecified no-effect boundaries of 80% to 125%” and the “changes in vadadustat exposure” value ([4]; vadadustat administered 2 hours after calcium acetate) was “within the prespecified no-effect boundaries of 80% to 125%”. For the same compound, the AUC(0-t) ([5]; 150 mg once daily) was 123 ± 30.5 µg·h/mL, the Cmax ([5]; 150 mg once daily) was 24200 ± 4990 ng/mL and the Tmax ([5]; 150 mg once daily) was 0.75 h. The half-life ([5]; 150 mg once daily) was 5.96 ± 0.914 h, the AUC(0-t) ([5]; 300 mg once daily) was 289 ± 75.3 µg·h/mL and the Cmax ([5]; 300 mg once daily) was 44300 ± 10800 ng/mL. The Tmax ([5]; 300 mg once daily) was 1.95 h, the half-life ([5]; 300 mg once daily) was 6.14 ± 0.763 h and the AUC(0-t) ([5]; 600 mg once daily) was 624 ± 205 µg·h/mL. It also gave a Cmax ([5]; 600 mg once daily) of 84800 ± 22300 ng/mL, a Tmax ([5]; 600 mg once daily) of 1.98 h and a half-life ([5]; 600 mg once daily) of 6.07 ± 0.419 h.
